Reference: patent publication US20140057865A1, “ANALYSIS OF NODES IN CELLULAR PATHWAYS” (Nodality, Inc., priority 2009, published 2014)
Entries after “also recorded” stand apart in the source; their conditions may differ.

Assays:
[1] = tested on: U937 cells; test: Cell cycle progression and cell death by DAPI staining and scatter; format: cell-based, human; conditions: Vidaza 2.5 μM, Dacogen 0.625 μM, 20 hours
Procedure: (§1) FIGS. 9 and 10 show an embodiment of the invention used to analyze the effects of the DNA methyltransferase inhibitor drugs Vidaza® cytidine analog and Dacogen® cytidine analog on cultured U937 cells. See Example 1 in U.S. Ser. No. 61/120,320 for detailed cell culture, staining, and flow cytometry protocols similar to those used in this example. Here, to analyze the effects of Vidaza® cytidine analog and Dacogen® cytidine analog on cell cycle progression and cell death, U937 cells were treated with Vidaza® cytidine analog (5-Azacytidine) at a concentration of 2.5 μM, or Dacogen® cytidine analog (5-Aza-2′-deoxycytidine) at a concentration of 0.625 μM. The cells were continuously incubated with the drugs for 20 hours in 10% FBS RPMI, fixed, permeabilized, and then stained with DAPI, or stained with DAPI and immunolabeled with antibodies against DMNT 1.
(§2) (See Alberts et al., Molecular Biology of the Cell, 4th Ed., Chapter 17 for an overview of the cell cycle). […] Additionally, the experimental results in this example may be used to identify therapeutic agents that can be used in combination with either Vidaza® cytidine analog or Dacogen® cytidine analog. […]

[2] = tested on: healthy bone marrow mononuclear cells; test: Viability of healthy BMMCs, ON01910.Na titration; format: cell-based
Procedure: (§3) In the example, erythroblast (TF-1) and U937 cell lines, as well as healthy bone marrow mononuclear cells, were treated with a test modulator (ON01910.Na) over several dilutions for 24 hours. Flow cytometry was used to obtain multiple intracellular readouts or nodes, including levels of protein phosphorylation, levels of protein expression, cell size and shape, and DNA content.
(§4) The findings shown in FIGS. 4 through 7 were tested in other cell types.

[3] = tested on: healthy bone marrow mononuclear cells; test: Cell cycle nodes by flow cytometry, ON01910.Na titration; format: cell-based
Procedure: as §3, §4

[4] = tested on: TF-1 cells; test: Cell cycle nodes (p-Cdk1 Y15, p-Histone H3 S28, Cyclin B1) by flow cytometry; format: cell-based, human
Procedure: as §3
FIGS. 4-6 show the effects of two concentrations of ON01910.Na on different markers or nodes whose activation status correlates with cell cycle progression. […] Cdk1 activation normally occurs at the end of G2, so increased Cdk1 levels […] at tyrosine 15 are consistent with cell cycle arrest in G2 or early M phases (See Alberts et al, Molecular Biology of the Cell, 4th Ed., Chapter 17 for a detailed discussion of the cell cycle).
Phosphorylation of histone H3 is a marker of chromatin condensation and entry into M phase (See Alberts et al, Molecular Biology of the Cell, 4th Ed., FIG. 4-35 for discussion of histone modifications). Continuous treatment with ON01910.Na for 24-hours enhances H3 (Ser28) phosphorylation. The effects of these two doses on the node state (serine 28 phosphorylation of H3) are detectable using flow cytometry. […] FIG. 7 presents a summary of the effects of ON01910.Na treatment on the Cyclin B1, p-Cdk1 Y15, and pH3 S28 cell cycle nodes.

[5] = tested on: U937 cells; test: Cell cycle nodes by flow cytometry, ON01910.Na titration; format: cell-based, human
Procedure: as §3, §4

[6] = tested on: erythroblast (TF-1) cell line; test: Cell death by forward and side scatter of light; format: cell-based, human; conditions: TF-1 erythroblasts, 24 and 48-hour continuous treatment
From the text: In some embodiments of the invention, the activatible elements may function in cell death, including apoptosis or necrosis. A person of ordinary skill in the art may analyze cell death using stains, biomarkers, assays, or kits to identify node states associated with cell cycle progression and cell death without departing from the scope of the invention. By way of example, stains used to identify cell death include, but are not limited to amine aqua, propidium iodide, 4′,6-diamidino-2-phenylindole (DAPI), bromodeoxyuridine (BrdU), acridine orange, SYTOX, and TUNEL. A person of ordinary skill in the art will appreciate that several of the aforementioned stains, such as DAPI, may also be used to determine the cell cycle of a single cell or population of cells. Cell death may also be identified using the forward versus side scatter dot plots obtained during flow cytometry.
as §3

[7] = tested on: erythroblast (TF-1) cell line; test: DNA content by DAPI staining, flow cytometry; format: cell-based, human; conditions: for cell cycle arrest and cell death by DNA content (sub-2n through 4n, DAPI staining): TF-1 erythroblasts, several dilutions, 24 hours
From the text: DNA content can be directly monitored using fluorescent dyes that bind DNA in the major or minor groove. This labeled DNA can be detected and cellular DNA content can be determined using flow cytometry or other methods as described below. DNA content can be used to indicate the status of a cell or population of cells. The effect of a compound on both the cell cycle and cell death pathways can be determined by monitoring changes in DNA content within a single cell or a population of cells. For example, cell cycle arrest in G1 or G2/M phases of the cell cycle may appear as an increase in 2n or 4n DNA content respectively while an increase in cell death may appear as an increase in sub-2n DNA content.
as §3

[8] = tested on: DNMT1; test: DNMT1 expression by immunolabeling, flow cytometry; format: cell-based, human; conditions: U937 cells, Vidaza 2.5 μM, 20 hours
Procedure: as §1, §2

[9] = TF-1 erythroblasts, two concentrations, 24 hours continuous

Structure (SMILES)	effect on cell cycle progression and cell death (DAPI frequency plots, scatter) [1]	viability of healthy bone marrow mononuclear cells [2]	cycling bone marrow mononuclear cells as measured by p-Cdk1 Y15 ([3]; BMMCs)	Cyclin B1 expression levels ([3]; healthy BMMCs)	cell cycle arrest indicated by Cyclin B1, p-Cdk1 Y15 and pH3 S28 nodes ([4]; TF-1 cells, various concentrations, 24 hours)	Cyclin B1 expression ([4]; TF-1 erythroblasts, increased concentration)	p-Cdk1 Y15 phosphorylation [4, 9]	p-Histone H3 S28 phosphorylation [4, 9]	changes in cell cycle signaling molecules [5]	expression of Cyclin B1 ([5]; 24 hours)	phosphorylation of Cdk1 ([5]; 24 hours)	phosphorylation of H3 ([5]; 24 hours)	cell death by scatter properties [6]	cell death by scatter properties ([6]; listed as ON-01910.Na)	4n DNA content peak ([7]; TF-1 cells, 0.12 μM and 0.37 μM)	cell cycle arrest and cell death by DNA content (sub-2n through 4n, DAPI staining) [7]	cell cycle arrest and cell death by DNA content (sub-2n through 4n, DAPI staining) ([7]; listed as ON-01910.Na)	expression of DNMT1 [8]
Nc1ncn([C@H]2C[C@H](O)[C@@H](CO)O2)c(=O)n1 [Dacogen, 5-Aza-2′-deoxycytidine]	S phase cell cycle arrest; also recorded: inducing arrest at S phase																	
COc1cc(OC)c(/C=C/S(=O)(=O)Cc2ccc(OC)c(NCC(=O)[O-])c2)c(OC)c1.[Na+] [ON01910.Na]		does not significantly alter viability	dose dependent decrease of cycling bone marrow mononuclear cells	Cyclin B1 expression levels increase	arrest in the G2 or M phases of the cell cycle in a dose dependent manner	more cells express Cyclin B1; also recorded: mediates an increase in cyclin B1	increases dephosphorylation of p-Cdk1 at tyrosine 15; also recorded: mediates dephosphorylation of p-Cdk1^Y15	histone 3 serine 28 phosphorylation increases; also recorded: mediates an increase in p-HistoneH3^S28	simultaneous changes in cell cycle signaling molecules at the same drug concentration	increased	decreased phosphorylation of Cdk1	increased phosphorylation of H3	induce cell death, with a greater magnitude of cell death observed following longer treatment and higher dose; also recorded: induces cell death in erythroblasts	induces cell death	increases in a dose-dependent manner	induces arrest in G2/M and cell death in a dose-dependent manner	induces arrest in G2/M and cell death	
Nc1ncn([C@@H]2O[C@H](CO)[C@@H](O)[C@H]2O)c(=O)n1 [Vidaza, 5-Azacytidine]	increased cell death; also recorded: inducing cell death																	decreased expression; also recorded: mediates a decrease in DNMT1
